Results: ChEMBL document CHEMBL1201862, “PubChem BioAssay data set” (2004)
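48-hour exposure; five concentrations; linearly interpolated endpoints. GI50 is the concentration that inhibits growth by half.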 Calls of active or inactive are those of the source. Cut-off read from the data, not from the text of the source: active = GI50 up to about 1.1 µM and inactive = higher.

Experiments:
Test in all cases: inhibition of tumour cell growth, NCI panel, 48 h
[1] = system: A498
[2] = system: BT-549
[3] = system: COLO 205
[4] = system: HCT-116
[5] = system: HOP-62
[6] = system: HOP-92
[7] = system: IGROV-1
[8] = system: K562
[9] = system: M14
[10] = system: MCF7
[11] = system: MDA-MB-231
[12] = system: Malme-3M
[13] = system: OVCAR-5
[14] = system: PC-3
[15] = system: RPMI-8226
[16] = system: SK-MEL-28
[17] = system: SNB-78
[18] = system: SR
[19] = system: SW-620
[20] = system: U-251

Measured: GI50

CCCCCCCCC(=O)NCCN(CCN)C(=O)CCCCCCCC
inactive: [1] 21.9 µM | [2] 3.44 µM | [3] 3.29 µM | [4] 3.74 µM | [5] 15.3 µM | [6] 14 µM | [7] 7.46 µM | [8] 2.18 µM | [9] 8.81 µM | [10] 4.75 µM | [11] 3.31 µM | [12] 17.9 µM | [13] 15.8 µM | [14] 10.7 µM | [15] 2.49 µM | [16] 14.9 µM | [17] 10.4 µM | [18] 2.69 µM | [19] 2.34 µM | [20] 3.37 µM

Clc1ccc2c(NCCCCCCNc3ccnc4cc(Cl)ccc34)ccnc2c1
inactive: [1] 11.2 µM | [2] 11.6 µM | [3] 1.82 µM | [4] 1.8 µM | [5] 4.72 µM | [6] 2 µM | [7] 4.8 µM | [8] 1.72 µM | [9] 1.88 µM | [10] 2.51 µM | [11] 2.22 µM | [12] 12.8 µM | [13] 7.05 µM | [14] 3.65 µM | [15] 2.13 µM | [16] 4.62 µM | [17] 1.86 µM | [18] 1.59 µM | [19] 1.63 µM | [20] 2.45 µM

COc1cc(/C=C2\CCC/C(=C\c3ccc(O)c(OC)c3)C2=O)ccc1O [CYCLOVALONE]
inactive: [1] 3.99 µM | [2] 3.59 µM | [3] 14.2 µM | [4] 2.07 µM | [5] 2.84 µM | [6] 5.2 µM | [7] 2.77 µM | [8] 3.22 µM | [9] 2.25 µM | [10] 4.33 µM | [11] 5.96 µM | [12] 2.17 µM | [13] 9.66 µM | [14] 3.66 µM | [15] 1.2 µM | [16] 3.41 µM | [17] 2.75 µM | [18] 1.28 µM | [19] 2.7 µM | [20] 2.08 µM
